Data taken from US5136090A, “Biphenyl-5,5'-bis-alkanoic acid derivatives, their production and aldose reductase inhibitors containing the same” (Toyo Jozo Kabushiki Kaisha, priority 1990, dated 1992).

Tests used:
Lens = assay: Suppression of sorbitol accumulation in cultured lens; format: cell-based, Wistar rats; details: rat lens cultured 20 hours with 0.9% glucose; for inhibition at 2.5 µg/mL: concentration 2.5 μg/ml; for inhibition at 5 µg/mL: concentration 5 μg/ml
Procedure: (§1) Lenses and sciatic nerves extirpated from Wistar rats, male, aged 7 weeks, were washed twice with an aseptic buffer solution consisting of 0.3% trisaminomethane, 0.8% NaCl, 0.038% KCl, 0.025% Na2 HPO4 ·12H2 O, 0.1% glucose and 1.85 ml/l of concentrated HCl.
(§2) The lenses and the sciatic nerves were then preincubated for 30 mins. in a culture medium prepared by adding 2 ml of 7.5% NaHCO3 aseptic solution and 5.5 ml of aseptic calf fetus serum to 100 ml of an aseptic culture medium of 0.98% TC Medium 199 (NISSUI Corp.) containing 0.01% of dihydrostreptomycin and 0.01% of benzylpenicillin. Thereafter, the intrinsic culture was effected in a culture medium prepared by adding each sample solution to be examined and 0.9% of glucose to the abovementioned culture medium and permitting culturing to proceed for 20 hours. The incubation was effected at 37° C. in an atmosphere composed of 95% air and 5% CO2.
(§3) After culturing, the cultured samples of lens and sciatic nerve were removed from the culture medium to filter paper and the weight of each of them was measured after the adherent culture solution had been blown off. Then, each of the cultured samples was homogenized with the addition of 1 ml of a cold 8% HClO4 solution and the homogenized mixture was subjected to centrifugation at 10,000 G for 10 mins., whereby a supernatant was obtained. The resulting precipitate was then homogenized again with addition thereto of 0.5 ml of cold 8% HClO4 solution and the homogenized mixture was again subjected to centrifugation in a similar way as above to obtain a further supernatant. This was combined with the previously obtained supernatant and the resulting solution was neutralized with 2N KOH aq. solution and was supplemented with distilled water to a volume of 5 ml. The precipitate formed by neutralization was separated by centrifugation at 3,000 rpm for 10 mins. and the resulting supernatant was employed as the sample for determining the sorbitol content.
(§4) The determination of the sorbitol content in the lens and in the sciatic nerve was carried out in accordance with the method of Bergmeyer in "Methods of Enzymatic Analysis" edited by H. U. Bergmeyer, pp 1323-1326, Academic Press, New York, 1974 and in accordance with the method of Malaon et al. in "Diabetes" 29, 861-864 (1980).
(§5) To 0.5 ml cf the sample solution for determination of sorbitol content obtained as above, 0.9 ml of 0.1M glycine-KOH buffer solution (pH 9.4) containing 1 mM of NAD^+ and 0.1 ml of a solution of sorbitol dehydrogenase of 20 units/ml were added and the resulting mixture was subjected to incubation at 37° C. for 1 hour.
(§6) The content of sorbitol in each tissue was estimated by assuming the increment of the optical absorption at 340 nm to be proportional to the amount of NADH produced by the reaction for the lens and by detecting the fluorescence with an excitation wavelength of 366 nm and a fluorescence wavelength of 425 nm for the sciatic nerve.
(§7) The activity for suppressing accumulation of sorbitol, i.e. the aldose reductase inhibiting activity, was calculated from the determined sorbitol content by the calculation formula [formula] in which A denotes the content of sorbitol per unit weight of the tissue after cultivation with addition of the inhibitor, B denotes the sorbitol content per unit weight of the tissue after cultivation without addition of the inhibitor and C represents the sorbitol content per unit weight of the tissue after cultivation in the medium without addition of glucose and inhibitor.

[1] = biological target: T1, partially purified bovine lens aldose reductase (Bos taurus, UniProt P16116); assay: Inhibitory activity on aldose reductase enzyme reaction; format: biochemical; details: for inhibition at 0.02 µg/mL: concentration 0.02 μg/ml; for inhibition at 0.1 µg/mL: concentration 0.1 μg/ml; for inhibition at 1 µg/mL: concentration 1.0 μg/ml
T1 construct: partially purified bovine lens aldose reductase; from tissue; host or cells: bovine lens
Procedure: The preparation of aldose reductase and the determination of its inhibitory action on enzyme reaction activity were carried out pursuant to the procedures disclosed by Haymann et al. in Journal of Biological Chemistry, 240, 877 (1965).
The sample solution to be examined for inhibitory activity was prepared by dissolving a compound of formula (I) according to the present invention in a small amount of methanol and increasing the volume of the resulting methanol solution by diluting it with distilled water up to tenfold volume. A partially purified bovine lens aldose reductase was used for the assay.
To 2.4 ml of a solution of 5×10^-5 M NADPH dissolved in a 2/15M phosphate buffer solution (pH 6.0), 0.4 ml of the enzyme solution (15 m units/ml) and 0.1 ml of the sample solution to be examined were added and the mixture was introduced into a quartz cell in a photoelectric photometer and subjected to pre-incubation at 37° C. for 4 mins. Then, 0.1 ml of a 0.015M D,L-glyceraldehyde solution was added thereto for initiating the enzyme reaction and the decrease in the optical absorption at 340 nm was measured at 37° C. for 4 mins. The inhibitory activity on aldose reductase was calculated by the following equation: [formula] in which A represents the enzyme reaction rate with addition of the inhibitor and B denotes the enzyme reaction rate without addition of the inhibitor.

Sciatic Nerve = assay: Suppression of sorbitol accumulation in cultured sciatic nerve; format: cell-based, Wistar rats; details: concentration 1.0 μg/ml, rat sciatic nerve cultured 20 hours with 0.9% glucose; for inhibition at 1 µg/mL: Rattus norvegicus, 20 h
Procedure: as §1, §2, §3, §4, §5, §6, §7

inhibition at 0.02 µg/mL [1] [%] | inhibition at 0.1 µg/mL [1] [%] | inhibition at 1 µg/mL [1] [%] | Compound | inhibition at 2.5 µg/mL (Lens) [%] | inhibition at 1 µg/mL (Sciatic Nerve) [%] | inhibition at 5 µg/mL (Lens) [%] | Inhibition of sorbitol Accumulation (%) Sciatic Nerve (Sciatic Nerve) [%]
33.6 | 69.2 | – | CCCOc1ccc(CCCC(=O)O)cc1-c1cc(CCCC(=O)O)ccc1O [Example 23, 2-propoxy-2'-hydroxy-5,5'-bis (3-carboxypropyl) biphenyl] | 55.3 | 81.1 | – | –
– | 73.6 | 90 | CCCOc1ccc(CCC(=O)O)cc1-c1cc(CCC(=O)O)ccc1O [Example 5, 2-propoxy-2'-hydroxy-5,5'-bis (2carboxyethyl) biphenyl] | 32.7 | 73.3 | 79.2 | 73.8
– | 61.9 | 89.1 | CC(C)CCOc1ccc(CCC(=O)O)cc1-c1cc(CCC(=O)O)ccc1O [Example 12, 2-isopentyloxy-2'-hydroxy-5, 5'-bis (2-carboxyethyl) biphenyl] | – | 59.5 | 78.1 | –
14.7 | 52.7 | – | COc1ccc(CCCC(=O)O)cc1-c1cc(CCCC(=O)O)ccc1O [Example 21, 2-methoxy-2'-hydroxy-5,5'-bis (3-carboxypropyl) biphenyl] | 48.8 | 75.4 | – | –
